ChEMBL document CHEMBL5550105, “Progress on synthesis and structure-activity relationships of lamellarins over the past decade” (Eur J Med Chem, 2024)
Blank lines part the entries; values can stand above or below the compound they belong to.

What was measured:
DU-145 = assay: Growth inhibition of human DU-145 cells measured for 72 hrs by SRB assay; assay type: functional
Acetylcholinesterase = Acetylcholinesterase (Homo sapiens, UniProt P22303); assay: Inhibition of human recombinant AChE using acetylthiocholine iodide substrate incubated for 5 mins by Ellman's spectrophotometric analysis
Chain of Acetylcholinesterase (P22303 whole entry): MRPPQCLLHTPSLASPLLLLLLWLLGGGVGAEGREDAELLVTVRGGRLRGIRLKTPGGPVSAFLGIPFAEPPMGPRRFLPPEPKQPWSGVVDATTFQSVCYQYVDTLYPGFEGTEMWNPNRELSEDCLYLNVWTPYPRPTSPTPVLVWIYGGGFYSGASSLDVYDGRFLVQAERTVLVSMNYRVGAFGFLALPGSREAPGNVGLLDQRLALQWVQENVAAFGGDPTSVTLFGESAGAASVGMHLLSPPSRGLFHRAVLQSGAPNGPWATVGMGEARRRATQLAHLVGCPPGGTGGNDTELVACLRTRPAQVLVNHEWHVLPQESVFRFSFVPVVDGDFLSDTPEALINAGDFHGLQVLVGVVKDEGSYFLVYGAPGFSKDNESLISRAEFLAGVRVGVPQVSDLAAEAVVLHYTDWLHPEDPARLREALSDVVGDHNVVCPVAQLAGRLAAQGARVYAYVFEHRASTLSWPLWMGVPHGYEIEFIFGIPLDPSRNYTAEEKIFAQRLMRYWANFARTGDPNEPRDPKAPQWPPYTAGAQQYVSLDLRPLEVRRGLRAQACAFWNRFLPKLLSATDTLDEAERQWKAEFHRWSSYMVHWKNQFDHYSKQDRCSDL

HT-29 = assay: Growth inhibition of human HT-29 cells measured for 72 hrs by SRB assay; assay type: functional
[1] = target: ATP-dependent translocase ABCB1 (Homo sapiens, UniProt P08183); assay: Inhibition of p-glycoprotein (unknown origin) expressed in MDCK-MDR1 cells; assay type: cell-based
Chain of ATP-dependent translocase ABCB1 (P08183 whole entry): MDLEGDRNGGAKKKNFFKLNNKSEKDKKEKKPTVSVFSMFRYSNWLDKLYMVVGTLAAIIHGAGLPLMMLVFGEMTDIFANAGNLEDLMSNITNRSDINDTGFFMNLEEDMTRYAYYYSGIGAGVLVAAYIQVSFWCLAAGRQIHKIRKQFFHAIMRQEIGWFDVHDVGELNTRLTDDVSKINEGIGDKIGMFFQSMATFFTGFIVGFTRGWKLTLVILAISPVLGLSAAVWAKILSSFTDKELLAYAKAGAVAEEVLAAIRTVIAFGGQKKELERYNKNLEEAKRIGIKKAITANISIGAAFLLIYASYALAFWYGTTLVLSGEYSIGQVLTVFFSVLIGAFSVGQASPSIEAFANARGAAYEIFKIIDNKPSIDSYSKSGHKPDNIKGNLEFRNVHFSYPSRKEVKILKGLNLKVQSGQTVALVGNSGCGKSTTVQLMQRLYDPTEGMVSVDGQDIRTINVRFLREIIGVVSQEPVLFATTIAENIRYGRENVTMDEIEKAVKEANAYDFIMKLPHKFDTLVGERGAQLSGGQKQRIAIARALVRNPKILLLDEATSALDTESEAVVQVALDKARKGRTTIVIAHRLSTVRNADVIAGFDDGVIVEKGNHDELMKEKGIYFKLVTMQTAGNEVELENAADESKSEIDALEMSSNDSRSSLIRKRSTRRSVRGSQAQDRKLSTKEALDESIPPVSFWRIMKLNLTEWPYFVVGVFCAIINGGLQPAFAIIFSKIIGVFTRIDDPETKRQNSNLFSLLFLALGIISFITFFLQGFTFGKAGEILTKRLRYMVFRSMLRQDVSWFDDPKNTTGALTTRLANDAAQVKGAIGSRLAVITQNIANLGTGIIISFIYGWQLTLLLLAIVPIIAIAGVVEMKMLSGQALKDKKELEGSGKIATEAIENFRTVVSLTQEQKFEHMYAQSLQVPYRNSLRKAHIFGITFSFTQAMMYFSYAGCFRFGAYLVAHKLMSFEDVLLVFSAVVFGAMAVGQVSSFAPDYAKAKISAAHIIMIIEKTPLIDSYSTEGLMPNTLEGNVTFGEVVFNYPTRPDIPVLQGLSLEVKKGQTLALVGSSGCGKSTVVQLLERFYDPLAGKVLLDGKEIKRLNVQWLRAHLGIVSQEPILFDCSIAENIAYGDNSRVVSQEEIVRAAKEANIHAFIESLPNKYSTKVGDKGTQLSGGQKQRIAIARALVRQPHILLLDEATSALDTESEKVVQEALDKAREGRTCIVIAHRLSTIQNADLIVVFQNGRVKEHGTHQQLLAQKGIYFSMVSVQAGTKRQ

HeLa = assay: Cytotoxicity against human HeLa cells assessed as reduction in cell viability measured for 48 hrs by crystal violet staining based analysis; assay type: functional
MCF7 = assay: Antiproliferative activity against human MCF7 cells assessed as reduction in cell growth incubated for 48 hrs by MTT assay; assay type: functional, cell-based; conditions: MCF7, 48 h

- GI50 (DU-145): 0.0108 µM
SMILES: COc1cc(-c2c3c4cc(OC)c(OC(=O)[C@H](N)C(C)C)cc4oc(=O)c3n3ccc4cc(OC(=O)[C@@H](N)C(C)C)c(OC)cc4c23)ccc1OC(=O)[C@@H](N)C(C)C

SMILES: CCOc1cc2c(cc1OCC)-c1c(-c3ccc(Cl)cc3)c(/C=N/c3ccc(/N=C/c4c(-c5ccc(Cl)cc5)c5n(c4-c4ccccc4)CCc4cc(OC)c(OC)cc4-5)cc3)c(-c3ccccc3)n1CC2
- IC50 (Acetylcholinesterase): 4.69 µM

- GI50 (HT-29): 1.28 µM
SMILES: COCCOCCOCC(=O)Oc1ccc(-c2c3c4cc(OC)c(OC(=O)COCCOCCOC)cc4oc(=O)c3n3ccc4cc(O)c(OC)cc4c23)cc1OC

- IC50 [1]: 1.01 µM
SMILES: CCOc1cc2c(cc1OCC)-c1c(-c3ccc(F)cc3)c(/C=N/c3ccc(O)cc3)c(-c3ccccc3)n1CC2

SMILES: COc1cc(-c2c3c4cc(OC)c(O)cc4[nH]c(=O)c3n3ccc4cc(O)c(OC)cc4c23)ccc1O
- IC50 (HeLa): 0.317 µM

- IC50 (MCF7): 6.83 µM
SMILES: Cc1ccc(-c2nc3c(=O)oc4ccccc4c3c3ccoc23)cc1

- IC50 [1]: 0.19 µM
SMILES: CCOc1ccc(-c2c(C=O)c(-c3ccco3)n3c2-c2cc(OCC)c(OCC)cc2CC3)cc1OCC

SMILES: COc1cc(-c2c3c4cc(OC)c(O)cc4oc(=O)c3n3ccc4cc(O)c(OC)cc4c23)ccc1O [LAMELLARIN D]
- GI50 (HT-29): 3 µM
- GI50 (DU-145): 0.0109 µM
